Data from paper PMC12348157, “Neuroprotective Evaluation of Murraya Carbazoles: In Vitro and Docking Insights into Their Anti-AChE and Anti-Aβ Activities” (Molecules, 2025).
Converted amounts (≈) assume the structure as drawn. “And” between values parts separate entries of the source, which are not always exact repeats. Identical values can stand only once. Like-named read-outs stand apart in the source and are kept apart here.

What was measured:
[1] = biological target: T1, Acetylcholinesterase (Electrophorus electricus, Type VI-S) (Electrophorus electricus, UniProt O42275); experiment: biochemical; settings: Electrophorus electricus AChE, mean of three experiments ± SD; read-out: IC50 anti-AChE activity (converted)
T1 sequence (O42275 24-633): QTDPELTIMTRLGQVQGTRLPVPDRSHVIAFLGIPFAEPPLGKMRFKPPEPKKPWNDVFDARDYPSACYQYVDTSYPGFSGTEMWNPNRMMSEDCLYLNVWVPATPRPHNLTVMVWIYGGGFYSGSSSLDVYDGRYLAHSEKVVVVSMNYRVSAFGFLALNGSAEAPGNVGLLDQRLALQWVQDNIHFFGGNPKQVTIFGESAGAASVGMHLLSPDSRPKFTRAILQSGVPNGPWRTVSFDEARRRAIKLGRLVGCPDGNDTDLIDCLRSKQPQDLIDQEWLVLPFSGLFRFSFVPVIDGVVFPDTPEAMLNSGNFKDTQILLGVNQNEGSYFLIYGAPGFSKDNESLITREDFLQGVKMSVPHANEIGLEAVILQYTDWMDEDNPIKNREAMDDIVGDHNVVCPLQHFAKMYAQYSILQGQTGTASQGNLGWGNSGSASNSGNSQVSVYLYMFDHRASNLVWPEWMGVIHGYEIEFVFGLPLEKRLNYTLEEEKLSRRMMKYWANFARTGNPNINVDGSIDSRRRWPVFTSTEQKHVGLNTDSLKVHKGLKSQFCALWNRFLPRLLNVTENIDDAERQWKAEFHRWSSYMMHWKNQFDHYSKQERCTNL

[2] = biological target: T1, Acetylcholinesterase (Electrophorus electricus, Type VI-S); experiment: AChE inhibition kinetics (Lineweaver–Burk / Michaelis–Menten); assay type: biochemical; settings: for Inhibition Type: Lineweaver–Burk plots
Procedure: The inhibition curves were plotted using linear regression (Lineweaver–Burk plot) on GraphPad Prism 10.3 (Figure 8).
The Km and Vmax values were calculated using a non-linear fit (Michaelis–Menten equation) (Table 6). The Ki value (inhibitor constant), the dissociation constant describing the binding affinity between the inhibitor and the enzyme, was calculated as described previously.
AChE inhibition was measured using Ellman’s method with slight modifications. The compounds were incubated with the enzyme and the substrate (10 mM ATC) for 15 min. Later, 15 mM DTNB was added, and the plate was incubated for 10 min at 37 °C. The absorbance was measured at 412 nm using a multimode reader (Synergy-H1 BioTek, Agilent, Santa Clara, CA, USA). Galantamine served as a positive control. Percent inhibition was computed using the equation: […]
Statistical analysis was performed by one-way ANOVA followed by Dunnett’s post hoc test. The data were registered as the mean ± SD of at least three experiments. The symbol *** represent p < 0.001 significance compared to the control. The IC50 values were determined using non-linear regression, and the Lineweaver–Burk plots were drawn using linear regression analysis by GraphPad Prism 10.3.

Aβ1-42 fibrillization = biological target: T2, Aβ1-42 fibrillization (Homo sapiens, UniProt P05067); experiment: Thioflavin T (ThT) anti-Aβ fibrillization assay; assay type: biochemical; settings: mean ± SD (n = 3); for Aβ fibrillization inhibition: samples 500 μg/mL, 24 h
T2 construct: Aβ1–42 was purchased from GenicBio Inc; purchased GenicBio Inc
T2 sequence (P05067 672-713): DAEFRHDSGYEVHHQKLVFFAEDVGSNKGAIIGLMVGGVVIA

AChE = settings: cited from earlier work
[3] = test system: LPS-treated animal models; settings: cited from earlier work
microglial cells = settings: cited from earlier work
[4] = listed as 9-methyl-9H-carbazole-2-carbaldehyde
[5] = inhibitor 10 μg/mL, read-out: Ki
[6] = inhibitor 30 μg/mL, read-out: Ki
[7] = no inhibitor concentration stated, read-out: Ki value
[8] = pre-treatment, LPS-treated animal models

## Cn1c2ccccc2c2ccc(C=O)cc21 [9-Methyl-9H-carbazole-2-carbaldehyde, 9-methyl-9H-carbazole-2-carbaldehyde]
[1]
  IC50: 37600 nM
[2]
  Inhibition Type: Competitive
[2]; [4]
  Inhibition Type: Competitive inhibition
[2]; inhibitor 10 μg/mL
  Vmax: 0.3874 µmol/min/mg
[2]; [5]
  Ki: 29200 nM
[2]; inhibitor 30 μg/mL
  Vmax: 0.3634 µmol/min/mg
[2]; [6]
  Ki: 31400 nM
[2]; [7]
  Ki: ~30000 nM
Aβ1-42 fibrillization
  Aβ fibrillization inhibition: did not show any inhibition
Aβ1-42 fibrillization; [4]
  Aβ fibrillization inhibition: no inhibition

## COc1ccc2c3c1O[C@H]1C[C@@H](O)C=C[C@@]31CCN(C)C2 [Galantamine, galantamine]
AChE
  IC50 anti-AChE, previously reported value: 0.31 µg/mL (≈ 1.08 µM)

## CC(C)=CCCC1(C)C=Cc2c(c(C)cc3c2[nH]c2ccccc23)O1 (centres unmarked) [Mahanimbine, mahanimbine]
[1]
  IC50: ~603 nM and 603 nM
[2]
  Inhibition Type: Non-Competitive
[2]; listed as mahanimbine
  Inhibition Type: non-competitive inhibition
[2]; inhibitor 10 μg/mL
  Vmax: 0.2098 µmol/min/mg
[2]; [5]
  Ki: 599 nM
[2]; inhibitor 30 μg/mL
  Vmax: 0.2231 µmol/min/mg
[2]; [6]
  Ki: 599 nM
[2]; [7]
  Ki: 440 to 590 nM
Aβ1-42 fibrillization
  Aβ fibrillization inhibition: 27.68 ± 2.71%
[3]; animal model
  Aβ1-40 levels: reduced
  Cognition: improved cognition
[3]; [8]
  ACh levels in the brain: improved
  AChE in the brain: inhibited

## COc1cc(C)cc2c1[nH]c1ccccc12 [Murrayafoline A, murrayafoline A]
[1]
  IC50: 67800 nM
[2]
  Inhibition Type: Competitive
[2]; listed as murrayafoline A
  Inhibition Type: Competitive inhibition
[2]; inhibitor 10 μg/mL
  Vmax: 0.3826 µmol/min/mg
[2]; [5]
  Ki: 58700 nM
[2]; inhibitor 30 μg/mL
  Vmax: 0.3753 µmol/min/mg
[2]; [6]
  Ki: 61000 nM
[2]; [7]
  Ki: ~60000 nM
Aβ1-42 fibrillization
  Aβ fibrillization inhibition: 33.60 ± 0.55%
Microglial cells
  Neuroprotective activity by reducing inflammation: neuroprotective activity

## COc1cc2[nH]c3c(C/C=C(\C)CCC=C(C)C)c(O)ccc3c2cc1C [Murrayanol, murrayanol]
[1]
  IC50: ~550 nM and 523 nM
[2]
  Inhibition Type: Competitive
[2]; listed as murrayanol
  Inhibition Type: Competitive inhibition
[2]; inhibitor 10 μg/mL
  Vmax: 0.3756 µmol/min/mg
[2]; [5]
  Ki: 444 nM
[2]; inhibitor 30 μg/mL
  Vmax: 0.3613 µmol/min/mg
[2]; [6]
  Ki: 470 nM
[2]; [7]
  Ki: ~450 nM and 450 nM and 440 to 590 nM
Aβ1-42 fibrillization
  Aβ fibrillization inhibition: 40.83 ± 0.30%

## O=S1(=O)OC(c2ccc(O)cc2)(c2ccc(O)cc2)c2ccccc21 [phenol red, reference compound]
Aβ1-42 fibrillization; phenol red 50 μM, read-out: Aβ fibrillization inhibition (positive control)
  inhibition at 50 µM: 67.86 ± 0.38%
